Experimental data from patent US20240409585A1, “MACROCYCLIC IMMUNOMODULATORS” (priority 2021, published 2024).
Bridge positions count the residues as written; N and C are the ends. Square brackets hold non-standard residues; d marks the D form. Peptide text beside a SMILES is read from it. Bip = N[C@@H](Cc1ccc(-c2ccccc2)cc1)C(=O)O; Phe(3-Cl) = N[C@@H](Cc1cccc(Cl)c1)C(=O)O; Phe(3-Me) = Cc1cccc(C[C@H](N)C(=O)O)c1; 1Nal = N[C@@H](Cc1cccc2ccccc12)C(=O)O; Bta = N[C@@H](Cc1csc2ccccc12)C(=O)O; NMeL = CN[C@@H](CC(C)C)C(=O)O; hLeu = CC(C)CC[C@H](N)C(=O)O; NMeA = CN[C@@H](C)C(=O)O; Orn = NCCC[C@H](N)C(=O)O; Dab = NCC[C@H](N)C(=O)O

target: T1, PE-labeled human PD-L1-Ig binding to Jurkat cell line over-expressing human PD-1 (Jurkat-PD-1) (Homo sapiens, UniProt Q15116); assay: Jurkat-PD-1 Cell Binding High-Content Screening Assay (CBA): Method 1; settings: Jurkat-hPD-1 cells, PE-labeled PD-L1-Ig 20 nM final; read-out: Jurkat HPDL1 PD1 IC50 (uM) (Method 1)
T1 construct: expressed in transfected cells; host or cells: Jurkat
T1 sequence (Q15116 25-288): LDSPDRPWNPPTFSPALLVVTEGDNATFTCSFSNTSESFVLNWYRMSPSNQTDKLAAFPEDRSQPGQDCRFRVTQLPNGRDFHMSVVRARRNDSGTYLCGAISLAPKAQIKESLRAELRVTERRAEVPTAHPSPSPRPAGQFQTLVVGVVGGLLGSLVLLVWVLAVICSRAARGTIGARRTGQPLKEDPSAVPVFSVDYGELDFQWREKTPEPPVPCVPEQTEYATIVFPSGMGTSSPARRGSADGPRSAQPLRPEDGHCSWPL

Row | IC50 [µM] | SMILES
1 | 0.06 | CC(C)CC[C@@H]1NC(=O)[C@H](CCCNC(=N)N)NC(=O)[C@@H](CC(C)C)NC(=O)[C@H](C)N(C)C(=O)[C@H](CCCNC(=N)N)NC(=O)[C@H](Cc2ccc(-c3ccccc3)cc2)NC(=O)[C@H](C(C)C)NC(=O)[C@H](Cc2c[nH]c3ccccc23)NC(=O)[C@H](CC(=O)O)NC(=O)[C@H](Cc2ccc(O)cc2)NC(=O)[C@H](Cc2ccccc2)NC(=O)CSC[C@@H](C(=O)N[C@@H](C)C(N)=O)NC(=O)[C@H]([C@@H](C)O)NC(=O)[C@H](C(C)C)NC1=O [Compound 1116] ({CH2CO}-FYDWV[Bip]R[NMeA][dL]R[hLeu]VTCA-NH2; thioether N-14)
2 | 0.36 | CC(C)C[C@H]1NC(=O)[C@H](C)N(C)C(=O)[C@H](CCCNC(=N)N)NC(=O)[C@H](Cc2ccc(-c3ccccc3)cc2)NC(=O)[C@H](C(C)C)NC(=O)[C@H](Cc2c[nH]c3ccccc23)NC(=O)[C@H](CC(=O)O)NC(=O)[C@H](Cc2ccc(O)cc2)NC(=O)[C@H](Cc2ccccc2)NC(=O)CSC[C@@H](C(=O)N[C@@H](C)C(N)=O)NC(=O)[C@H]([C@@H](C)O)NC(=O)[C@H](C(C)C)NC(=O)[C@H](CC(C)C)N(C)C(=O)[C@H](CCCNC(=N)N)NC1=O [Compound 1117] ({CH2CO}-FYDWV[Bip]R[NMeA][dL]R[NMeL]VTCA-NH2; thioether N-14)
3 | 0.16 | CC[C@H](C)[C@@H]1NC(=O)[C@H](CC(C)C)NC(=O)[C@H](CCCNC(=N)N)NC(=O)[C@@H](CC(C)C)NC(=O)[C@H](C)N(C)C(=O)[C@H](CCCNC(=N)N)NC(=O)[C@H](Cc2ccc(-c3ccccc3)cc2)NC(=O)[C@H](C(C)C)NC(=O)[C@H](Cc2c[nH]c3ccccc23)NC(=O)[C@H](CC(=O)O)NC(=O)[C@H](Cc2ccc(O)cc2)NC(=O)[C@H](Cc2ccccc2)NC(=O)CSC[C@@H](C(=O)N[C@@H](C)C(N)=O)NC(=O)[C@H]([C@@H](C)O)NC1=O [Compound 1118] ({CH2CO}-FYDWV[Bip]R[NMeA][dL]RLITCA-NH2; thioether N-14)
4 | 0.03 | CC(C)C[C@@H]1NC(=O)[C@H](CCCN)NC(=O)[C@@H](CC(C)C)NC(=O)[C@H](C)N(C)C(=O)[C@H](CCCNC(=N)N)NC(=O)[C@H](Cc2ccc(-c3ccccc3)cc2)NC(=O)[C@H](C(C)C)NC(=O)[C@H](Cc2c[nH]c3ccccc23)NC(=O)[C@H](CC(=O)O)NC(=O)[C@H](Cc2ccc(O)cc2)NC(=O)[C@H](Cc2ccccc2)NC(=O)CSC[C@@H](C(=O)N[C@@H](C)C(N)=O)NC(=O)[C@H]([C@@H](C)O)NC(=O)[C@H](C(C)C)NC1=O [Compound 1119] ({CH2CO}-FYDWV[Bip]R[NMeA][dL][Orn]LVTCA-NH2; thioether N-14)
5 | 0.27 | CC(C)C[C@@H]1NC(=O)[C@H](CCCN)NC(=O)[C@H](Cc2csc3ccccc23)NC(=O)[C@H](C)N(C)C(=O)[C@H](CCCNC(=N)N)NC(=O)[C@H](Cc2ccc(-c3ccccc3)cc2)NC(=O)[C@H](C(C)C)NC(=O)[C@H](Cc2c[nH]c3ccccc23)NC(=O)[C@H](CC(=O)O)NC(=O)[C@H](Cc2ccc(O)cc2)NC(=O)[C@H](Cc2ccccc2)NC(=O)CSC[C@@H](C(=O)N[C@@H](C)C(N)=O)NC(=O)[C@H]([C@@H](C)O)NC(=O)[C@H](C(C)C)NC1=O [Compound 1120] ({CH2CO}-FYDWV[Bip]R[NMeA][Bta][Orn]LVTCA-NH2; thioether N-14)
6 | 0.06 | CC(C)C[C@@H]1NC(=O)[C@H](CCN)NC(=O)[C@@H](CC(C)C)NC(=O)[C@H](C)N(C)C(=O)[C@H](CCCN)NC(=O)[C@H](Cc2ccc(-c3ccccc3)cc2)NC(=O)[C@H](C(C)C)NC(=O)[C@H](Cc2c[nH]c3ccccc23)NC(=O)[C@H](CC(=O)O)NC(=O)[C@H](Cc2ccc(O)cc2)NC(=O)[C@H](Cc2ccccc2)NC(=O)CSC[C@@H](C(=O)N[C@@H](C)C(N)=O)NC(=O)[C@H]([C@@H](C)O)NC(=O)[C@H](C(C)C)NC1=O [Compound 1121] ({CH2CO}-FYDWV[Bip][Orn][NMeA][dL][Dab]LVTCA-NH2; thioether N-14)
7 | 0.24 | CC(C)C[C@@H]1NC(=O)[C@H](CCN)NC(=O)[C@H](Cc2csc3ccccc23)NC(=O)[C@H](C)N(C)C(=O)[C@H](CCCN)NC(=O)[C@H](Cc2ccc(-c3ccccc3)cc2)NC(=O)[C@H](C(C)C)NC(=O)[C@H](Cc2c[nH]c3ccccc23)NC(=O)[C@H](CC(=O)O)NC(=O)[C@H](Cc2ccc(O)cc2)NC(=O)[C@H](Cc2ccccc2)NC(=O)CSC[C@@H](C(=O)N[C@@H](C)C(N)=O)NC(=O)[C@H]([C@@H](C)O)NC(=O)[C@H](C(C)C)NC1=O [Compound 1122] ({CH2CO}-FYDWV[Bip][Orn][NMeA][Bta][Dab]LVTCA-NH2; thioether N-14)
8 | 0.06 | CC(C)C[C@@H]1NC(=O)[C@H](CCCNC(=N)N)NC(=O)[C@@H](CC(C)C)NC(=O)[C@H](C)N(C)C(=O)[C@H](CCCN)NC(=O)[C@H](Cc2ccc(-c3ccccc3)cc2)NC(=O)[C@H](C(C)C)NC(=O)[C@H](Cc2c[nH]c3ccccc23)NC(=O)[C@H](CC(=O)O)NC(=O)[C@H](Cc2ccc(O)cc2)NC(=O)[C@H](Cc2ccccc2)NC(=O)CSC[C@@H](C(=O)N[C@@H](C)C(N)=O)NC(=O)[C@H]([C@@H](C)O)NC(=O)[C@H](C(C)C)NC1=O [Compound 1123] ({CH2CO}-FYDWV[Bip][Orn][NMeA][dL]RLVTCA-NH2; thioether N-14)
9 | 0.69 | CC(C)C[C@@H]1NC(=O)[C@H](CCCNC(=N)N)NC(=O)[C@H](Cc2csc3ccccc23)NC(=O)[C@H](C)N(C)C(=O)[C@H](CCCN)NC(=O)[C@H](Cc2ccc(-c3ccccc3)cc2)NC(=O)[C@H](C(C)C)NC(=O)[C@H](Cc2c[nH]c3ccccc23)NC(=O)[C@H](CC(=O)O)NC(=O)[C@H](Cc2ccc(O)cc2)NC(=O)[C@H](Cc2ccccc2)NC(=O)CSC[C@@H](C(=O)N[C@@H](C)C(N)=O)NC(=O)[C@H]([C@@H](C)O)NC(=O)[C@H](C(C)C)NC1=O [Compound 1124] ({CH2CO}-FYDWV[Bip][Orn][NMeA][Bta]RLVTCA-NH2; thioether N-14)
10 | 0.05 | Cc1cccc(C[C@@H]2NC(=O)[C@H](CC(=O)O)NC(=O)[C@H](Cc3ccc(O)cc3)NC(=O)[C@H](Cc3ccccc3)NC(=O)CSC[C@@H](C(=O)N[C@@H](C)C(N)=O)NC(=O)[C@H]([C@@H](C)O)NC(=O)[C@H](C(C)C)NC(=O)[C@H](CC(C)C)NC(=O)[C@H](CCCNC(=N)N)NC(=O)[C@@H](CC(C)C)NC(=O)[C@H](C)N(C)C(=O)[C@H](CCCNC(=N)N)NC(=O)[C@H](Cc3ccc(-c4ccccc4)cc3)NC(=O)[C@H](C(C)C)NC2=O)c1 [Compound 1125] ({CH2CO}-FYD[Phe(3-Me)]V[Bip]R[NMeA][dL]RLVTCA-NH2; thioether N-14)
11 | 0.23 | CC(C)C[C@@H]1NC(=O)[C@H](CCCNC(=N)N)NC(=O)[C@@H](CC(C)C)NC(=O)[C@H](C)N(C)C(=O)[C@H](CCCNC(=N)N)NC(=O)[C@H](Cc2ccc(-c3ccccc3)cc2)NC(=O)[C@H](C(C)C)NC(=O)[C@H](Cc2cccc3ccccc23)NC(=O)[C@H](CC(=O)O)NC(=O)[C@H](Cc2ccc(O)cc2)NC(=O)[C@H](CC(N)=O)NC(=O)CSC[C@@H](C(=O)N[C@@H](C)C(N)=O)NC(=O)[C@H]([C@@H](C)O)NC(=O)[C@H](C(C)C)NC1=O [Compound 1126] ({CH2CO}-NYD[1Nal]V[Bip]R[NMeA][dL]RLVTCA-NH2; thioether N-14)
12 | 0.09 | CC(C)C[C@@H]1NC(=O)[C@H](CCCNC(=N)N)NC(=O)[C@@H](CC(C)C)NC(=O)[C@H](C)N(C)C(=O)[C@H](CCCNC(=N)N)NC(=O)[C@H](Cc2ccc(-c3ccccc3)cc2)NC(=O)[C@H](C(C)C)NC(=O)[C@H](Cc2cccc(Cl)c2)NC(=O)[C@H](CC(=O)O)NC(=O)[C@H](Cc2ccc(O)cc2)NC(=O)[C@H](CC(N)=O)NC(=O)CSC[C@@H](C(=O)N[C@@H](C)C(N)=O)NC(=O)[C@H]([C@@H](C)O)NC(=O)[C@H](C(C)C)NC1=O [Compound 1127] ({CH2CO}-NYD[Phe(3-Cl)]V[Bip]R[NMeA][dL]RLVTCA-NH2; thioether N-14)
13 | 0.08 | CC(C)C[C@@H]1NC(=O)[C@H](CCCN)NC(=O)[C@@H](CC(C)C)NC(=O)[C@H](C)N(C)C(=O)[C@H](CCCNC(=N)N)NC(=O)[C@H](Cc2ccc(-c3ccccc3)cc2)NC(=O)[C@H](C(C)C)NC(=O)[C@H](Cc2c[nH]c3ccccc23)NC(=O)[C@H](CC(=O)O)NC(=O)[C@H](Cc2ccc(O)cc2)NC(=O)[C@H](CC(N)=O)NC(=O)CSC[C@@H](C(=O)N[C@@H](C)C(N)=O)NC(=O)[C@H]([C@@H](C)O)NC(=O)[C@H](C(C)C)NC1=O [Compound 1128] ({CH2CO}-NYDWV[Bip]R[NMeA][dL][Orn]LVTCA-NH2; thioether N-14)
14 | 0.09 | CC(C)C[C@@H]1NC(=O)[C@H](CCCN)NC(=O)[C@@H](CC(C)C)NC(=O)[C@H](C)N(C)C(=O)[C@H](CCCNC(=N)N)NC(=O)[C@H](Cc2ccc(-c3ccccc3)cc2)NC(=O)[C@H](C(C)C)NC(=O)[C@H](Cc2c[nH]c3ccccc23)NC(=O)[C@H](CC(=O)O)NC(=O)[C@H](Cc2cnc[nH]2)NC(=O)[C@H](Cc2ccccc2)NC(=O)CSC[C@@H](C(=O)N[C@@H](C)C(N)=O)NC(=O)[C@H]([C@@H](C)O)NC(=O)[C@H](C(C)C)NC1=O [Compound 1129] ({CH2CO}-FHDWV[Bip]R[NMeA][dL][Orn]LVTCA-NH2; thioether N-14)
15 | 0.18 | CC(C)C[C@@H]1NC(=O)[C@H](CCN)NC(=O)[C@@H](CC(C)C)NC(=O)[C@H](C)N(C)C(=O)[C@H](CCCNC(=N)N)NC(=O)[C@H](Cc2ccc(-c3ccccc3)cc2)NC(=O)[C@H](C(C)C)NC(=O)[C@H](Cc2c[nH]c3ccccc23)NC(=O)[C@H](CC(=O)O)NC(=O)[C@H](Cc2cnc[nH]2)NC(=O)[C@H](Cc2ccccc2)NC(=O)CSC[C@@H](C(=O)N[C@@H](C)C(N)=O)NC(=O)[C@H]([C@@H](C)O)NC(=O)[C@H](C(C)C)NC1=O [Compound 1130] ({CH2CO}-FHDWV[Bip]R[NMeA][dL][Dab]LVTCA-NH2; thioether N-14)
16 | 0.28 | CC(C)C[C@@H]1NC(=O)[C@H](CCCN)NC(=O)[C@@H](CC(C)C)NC(=O)[C@H](C)N(C)C(=O)[C@H](CCCNC(=N)N)NC(=O)[C@H](Cc2ccc(-c3ccccc3)cc2)NC(=O)[C@H](C(C)C)NC(=O)[C@H](Cc2c[nH]c3ccccc23)NC(=O)[C@H](CC(=O)O)NC(=O)[C@H](Cc2cnc[nH]2)NC(=O)[C@H](CC(N)=O)NC(=O)CSC[C@@H](C(=O)N[C@@H](C)C(N)=O)NC(=O)[C@H]([C@@H](C)O)NC(=O)[C@H](C(C)C)NC1=O [Compound 1131] ({CH2CO}-NHDWV[Bip]R[NMeA][dL][Orn]LVTCA-NH2; thioether N-14)
